Data reported in patent US8383690B2, “Pharmaceutical composition useful for the treatment of peptic ulcer diseases” (Council of Scientific and Industrial Research, priority 2006, dated 2013).
Converted amounts (≈) assume the structure as drawn. Read-outs that look alike come from different tables or passages of the source. Blank lines part the entries; values can stand above or below the compound they belong to.

Assays:
[1] = biological target: T1, gastric H+,K+-ATPase (Sus scrofa, UniProt P19156); assay: Anti gastric proton pump activity: H+,K+-ATPase inhibition in pig gastric membranes; format: biochemical
T1 construct: Pig gastric membranes enriched in apical and tubulovesicular membranes were prepared according to [59]; from tissue; host or cells: pig gastric mucosa membranes (apical and tubulovesicular)
T1 sequence (P19156 whole entry): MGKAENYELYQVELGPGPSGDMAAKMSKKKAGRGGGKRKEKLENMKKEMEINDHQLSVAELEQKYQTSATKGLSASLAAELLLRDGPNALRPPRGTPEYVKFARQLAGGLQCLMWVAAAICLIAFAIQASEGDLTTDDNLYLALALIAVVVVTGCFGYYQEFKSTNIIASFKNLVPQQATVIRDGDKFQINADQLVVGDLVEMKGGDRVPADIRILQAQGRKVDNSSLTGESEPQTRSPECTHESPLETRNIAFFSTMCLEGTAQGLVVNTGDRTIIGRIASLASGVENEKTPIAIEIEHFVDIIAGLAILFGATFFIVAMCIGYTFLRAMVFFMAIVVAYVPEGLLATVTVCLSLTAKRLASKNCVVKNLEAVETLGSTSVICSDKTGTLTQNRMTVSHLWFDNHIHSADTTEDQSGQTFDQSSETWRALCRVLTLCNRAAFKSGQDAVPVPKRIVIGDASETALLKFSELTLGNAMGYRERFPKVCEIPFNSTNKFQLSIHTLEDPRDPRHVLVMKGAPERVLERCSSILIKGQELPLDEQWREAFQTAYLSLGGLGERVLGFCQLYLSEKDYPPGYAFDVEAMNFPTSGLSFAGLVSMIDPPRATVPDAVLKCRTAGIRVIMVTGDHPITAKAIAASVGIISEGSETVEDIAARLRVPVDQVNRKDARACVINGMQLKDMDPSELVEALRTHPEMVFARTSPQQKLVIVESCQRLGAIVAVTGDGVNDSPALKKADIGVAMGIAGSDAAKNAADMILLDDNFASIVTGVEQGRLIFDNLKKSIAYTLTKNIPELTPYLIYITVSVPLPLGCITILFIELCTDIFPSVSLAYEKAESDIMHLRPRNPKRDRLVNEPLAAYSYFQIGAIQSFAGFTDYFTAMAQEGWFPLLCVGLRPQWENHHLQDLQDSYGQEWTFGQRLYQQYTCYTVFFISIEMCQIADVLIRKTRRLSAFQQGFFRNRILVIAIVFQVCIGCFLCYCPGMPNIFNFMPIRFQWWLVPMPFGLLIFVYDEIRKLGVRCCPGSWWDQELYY
T1 sequence (P18434 whole entry partner): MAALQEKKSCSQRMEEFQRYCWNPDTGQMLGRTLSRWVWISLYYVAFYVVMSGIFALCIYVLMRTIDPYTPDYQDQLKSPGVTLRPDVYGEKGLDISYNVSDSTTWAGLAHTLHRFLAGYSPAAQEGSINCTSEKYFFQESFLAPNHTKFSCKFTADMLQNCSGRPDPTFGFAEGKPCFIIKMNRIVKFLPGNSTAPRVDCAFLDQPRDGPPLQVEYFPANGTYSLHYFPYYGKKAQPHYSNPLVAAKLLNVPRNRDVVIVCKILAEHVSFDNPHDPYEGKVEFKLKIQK
Protocol: Pig gastric membranes enriched in apical and tubulovesicular membranes were prepared according to [59].
The H^+,K^+-ATPase activity was measured at 37° C. in a 1-mL reaction mixture containing 2 mM MgCl2, 2 mM ATP, 10 mM PIPES (pH 6.8), 10 mM KCl and 10-12 μg membrane protein. An otherwise complete assay mixture was preincubated for 10 min in presence and absence of different concentrations of oenothein C or omeprazole before initiating the reaction with ATP. After incubation for 10 min, the reaction was terminated by the addition of 1 mL ice-chilled TCA (14%).
K^+-stimulated activity, referred to as H^+,K^+-ATPase, was calculated as the difference between the activity in presence of Mg plus K^+ and the basal activity (Mg^+-ATPase) in presence of Mg^+ alone. […] Following enzymatic assay method, the inhibitory activity of oenothein C was assessed. The effects are quantitated in terms of percent inhibition of H^+,K^+-ATPase, and compared with that of omeprazole, a specific inhibitor of gastric H^+,K^+-ATPase.

[2] = Solubility in solvents; format: physicochemical; details: methanol, acetone, DMSO
Protocol: The molecule oenothein C has been isolated from the flowers of the plant Woodfordia fruticosa, abundantly available in the Indian subcontinent. Dried flowers of Woodfordia fruticosa were extracted by soaking overnight with 1:1 methanol-water at room temperature. The process was repeated thrice. The combined extract was evaporated at 45° C. in a rotary evaporator to get the crude extract. This was partitioned between n-butanol and water. The layers were separately evaporated at 45° C. to obtain two fractions. The n-butanol soluble fraction was chromatographed repeatedly over diaion HP-20 and sephadex LH-20 columns following bioassay guided fractionation technique to obtain pure oenothein C as an off-white solid, amorphous in nature.

[3] = test system: Swiss albino mice; assay: Toxicity evaluation (mortality) in Swiss albino mice; format: in vivo
Protocol: The compound oenothein C was checked for mortality of the Swiss albino mice.
Maximum dosage of 250 mg/Kg body weight of compound oenothein C was given to 5 swiss albino mice via oral route.

[4] = test system: H. pylori; assay: Disc diffusion sensitivity assay against H. pylori; format: cell-based, Helicobacter pylori; details: for zone of inhibition at 100 µg/disc / zone of inhibition at 200 µg/disc: Helicobacter pylori, read-out: Inhibition Zone Diameter; for zone of inhibition at 100 µg/disc: 100 μg/disc; for zone of inhibition at 200 µg/disc: 200 μg/disc
[5] = test system: K. pneumoniae; assay: Antibacterial microbroth dilution assay in Muller Hinton broth (NCCLS); format: cell-based; details: Klebsiella pneumoniae, gram negative
Source text: (§1) Further, the antibacterial activity of oenothein C was examined against four aerobic bacteria (1 gram positive, B. cereus and 3 gram negative, S. typhi, E. coli & K. pneumoniae) by microbroth dilution assay in Muller Hinton broth essentially by following NCCLS (National Commmittee for Clinical Laboratory Standards) guideline.

[6] = test system: B. cereus; assay: as above; format: cell-based; details: Bacillus cereus, gram positive
Source text: as §1

[7] = test system: S. typhi; assay: as above; format: cell-based; details: Salmonella enterica
Source text: as §1

[8] = test system: E. coli; assay: as above; format: cell-based; details: Escherichia coli, gram negative
Source text: as §1

[9] = test system: H. pylori; assay: MIC/MBC by microbroth dilution assay against H. pylori; format: cell-based, Helicobacter pylori
[10] = Helicobacter pylori, ATCC43504, strain ATCC 43504
[11] = Helicobacter pylori, ATCC43504, strain ATCC 43504, read-out: MIC
[12] = Helicobacter pylori, ATCC43629, strain ATCC 43629
[13] = Helicobacter pylori, ATCC43629, strain ATCC 43629, read-out: MIC
[14] = Helicobacter pylori, ATCC49503, strain ATCC 49503
[15] = Helicobacter pylori, ATCC49503, strain ATCC 49503, read-out: MIC
[16] = Helicobacter pylori, NCTC26695, strain NCTC 26695
[17] = Helicobacter pylori, NCTC26695, strain NCTC 26695, read-out: MIC
[18] = Helicobacter pylori, strain 80A
[19] = Helicobacter pylori, strain 80A, read-out: MIC

% Inhibition of H+,K+-ATPase ([1]; 3 μM): 10-30%
inhibition at 3 µM ([1]; 3 μM): ~20%
inhibition at 15 µM ([1]; 15 μM): 40 to 60%
inhibition at 30 µM ([1]; 30 μM): 80 to 90%
degree of inhibition of the gastric proton pump ([1]; over 3-30 μM): 10-90%
SMILES: COc1ccc2[nH]c([S+]([O-])Cc3ncc(C)c(OC)c3C)nc2c1 (centres unmarked) [Omeprazole, omeprazole]

SMILES: O=C(O[C@H]1[C@H](O)[C@@H](CO)OC(O)[C@@H]1OC(=O)c1cc(O)c(O)c(O)c1Oc1cc2c(=O)oc3c(O)c(O)cc4c(=O)oc(c1O)c2c34)c1cc(O)c(O)c(O)c1 (mixture of isomers) [Oenothein C, D-Glucose 2-[2-[(5,10-dihydro-3,7,8-trihydroxy-5,10-dioxo[1]benzopyrano[5,4,3-cde][1]benzopyran-2-yl)oxy]-3,4,5-trihydroxy benzoate]-3-(3,4,5-trihydroxybenzoate)]
solubility [2]: soluble in methanol, acetone and DMSO
inhibition at 0.13 µM ([1]; 0.13 μM): 20 to 30%
inhibition at 0.64 µM ([1]; 0.64 μM): 50 to 70%
inhibition at 1.3 µM ([1]; 1.30 μM): 70 to 90%
IC50 ([1]; concentration range 0.13 to 1.3 μM, read-out: IC50 of gastric proton pump activity in vitro): 600 to 800 nM
degree of inhibition of the gastric proton pump ([1]; over 0.13-1.30 μM): 20-90%
degree of inhibition of gastric proton pump higher as compared with omeprazole ([1]; versus omeprazole, identical conditions): about 20 fold
health and behaviour under observation ([3]; 250 mg/Kg body weight, oral route, 15 days): found to remain healthy, and no behavioral abnormality were noted
mortality ([3]; 250 mg/Kg body weight, oral route, after 24 hours): no mortality
toxic effect ([3]; single dose level up to 250 mg/kg body weight): does not show any toxic effect
inhibition zone diameter, range over strains ([4]; 100-200 μg/disc, 6 different strains of H. pylori): 1.7-2.5 cm
zone of inhibition at 100 µg/disc ([4]; strain 80A): 20 mm
zone of inhibition at 200 µg/disc ([4]; strain 80A): 25 mm
zone of inhibition at 100 µg/disc ([4]; strain 121A): 17 mm
zone of inhibition at 200 µg/disc ([4]; strain 121A): 20 mm
Inhibition Zone Diameter ([4]; strain ATCC 43504, 100 μg/disc): 2.0 cm
Inhibition Zone Diameter ([4]; strain ATCC 43504, 200 μg/disc): 2.7 cm
Inhibition Zone Diameter ([4]; strain ATCC 43629, 100 μg/disc): 1.9 cm
Inhibition Zone Diameter ([4]; strain ATCC 43629, 200 μg/disc): 2.3 cm
Inhibition Zone Diameter ([4]; strain ATCC 49503, 100 μg/disc): 1.7 cm
Inhibition Zone Diameter ([4]; strain ATCC 49503, 200 μg/disc): 2.2 cm
Inhibition Zone Diameter ([4]; strain NCTC 26695, 100 μg/disc): 2.0 cm
Inhibition Zone Diameter ([4]; strain NCTC 26695, 200 μg/disc): 2.4 cm
MIC [5]: > 400 µg/mL
MIC [6]: > 400 µg/mL
MIC [7]: > 400 µg/mL
MIC [8]: > 400 µg/mL
fold less competent in respect of metronidazole MIC values ([9]; 5 strains): 2-20 fold
MBC [9, 10]: > 50 µg/mL
MIC [9, 11]: 25 µg/mL
MBC [9, 12]: > 50 µg/mL
MIC [9, 13]: 25 µg/mL
MBC [9, 14]: 50 µg/mL
MIC [9, 15]: 6.25 µg/mL
MBC [9, 16]: 25 µg/mL
MIC [9, 17]: 12.5 µg/mL
MBC [9, 18]: 50 µg/mL
MIC [9, 19]: 25 µg/mL
minimum inhibitory concentration (MIC), range over strains ([9]; clinical and standard strains of H. pylori): 6.25 to 25.0 µg/mL
fold less potent as compared with clarithromycin and amoxycillin, based on MIC values ([9]; different strains): 500-1000 fold

MIC [9, 11]: 0.025 µg/mL (≈ 0.0684 µM)
MIC [9, 13]: 0.025 µg/mL (≈ 0.0684 µM)
MIC [9, 15]: 0.0125 µg/mL (≈ 0.0342 µM)
MIC [9, 17]: 0.1 µg/mL (≈ 0.274 µM)
MIC [9, 19]: 0.02 µg/mL (≈ 0.0547 µM)
MIC ([9]; strain 80A): 0.02 µg/mL (≈ 0.0547 µM)
MIC ([9]; strain ATCC 43504): 0.025 µg/mL (≈ 0.0684 µM)
MIC ([9]; strain ATCC 43629): 0.025 µg/mL (≈ 0.0684 µM)
MIC ([9]; strain ATCC 49503): 0.013 µg/mL (≈ 0.0356 µM)
MIC ([9]; strain NCTC 26695): 0.1 µg/mL (≈ 0.274 µM)
SMILES: CC1(C)S[C@@H]2[C@H](NC(=O)[C@H](N)c3ccc(O)cc3)C(=O)N2[C@H]1C(=O)O [Amoxycillin, amoxycillin]
MBC [9, 10]: 0.05 µg/mL (≈ 0.137 µM)
MBC [9, 12]: 0.05 µg/mL (≈ 0.137 µM)
MBC [9, 14]: 0.05 µg/mL (≈ 0.137 µM)
MBC [9, 16]: < 1 µg/mL
MBC [9, 18]: 0.08 µg/mL (≈ 0.219 µM)

MIC [9, 11]: 0.025 µg/mL (≈ 0.0334 µM)
MIC [9, 13]: 0.05 µg/mL (≈ 0.0668 µM)
MIC [9, 15]: 0.00625 µg/mL (≈ 0.00836 µM)
MIC [9, 17]: 0.0625 µg/mL (≈ 0.0836 µM)
MIC [9, 19]: 0.02 µg/mL (≈ 0.0267 µM)
MIC ([9]; strain 80A): 0.02 µg/mL (≈ 0.0267 µM)
MIC ([9]; strain ATCC 43504): 0.025 µg/mL (≈ 0.0334 µM)
MIC ([9]; strain ATCC 43629): 0.050 µg/mL (≈ 0.0668 µM)
MIC ([9]; strain ATCC 49503): 0.006 µg/mL (≈ 0.00802 µM)
MIC ([9]; strain NCTC 26695): 0.063 µg/mL (≈ 0.0842 µM)
SMILES: CC[C@H]1OC(=O)[C@H](C)[C@@H](O[C@H]2C[C@@](C)(OC)[C@@H](O)[C@H](C)O2)[C@H](C)[C@@H](O[C@@H]2O[C@H](C)C[C@H](N(C)C)[C@H]2O)[C@](C)(OC)C[C@@H](C)C(=O)[C@H](C)[C@@H](O)[C@]1(C)O [Clarithromycin, clarithromycin]
Inhibition Zone Diameter ([4]; strain 80A, 10 ng/disc): 1.8 (10) cm
Inhibition Zone Diameter ([4]; strain 121A, 10 ng/disc): 1.8 (10) cm
Inhibition Zone Diameter ([4]; strain ATCC 43504, 40 ng/disc): 2.0 (40) cm
Inhibition Zone Diameter ([4]; strain ATCC 43629, 100 ng/disc): 1.7 (100) cm
Inhibition Zone Diameter ([4]; strain ATCC 49503, 5 ng/disc): 1.7 (5) cm
Inhibition Zone Diameter ([4]; strain NCTC 26695, 400 ng/disc): 2.0 (400) cm
MBC [9, 10]: 0.05 µg/mL (≈ 0.0668 µM)
MBC [9, 12]: 0.1 µg/mL (≈ 0.134 µM)
MBC [9, 14]: 0.013 µg/mL (≈ 0.0174 µM)
MBC [9, 16]: 0.1 µg/mL (≈ 0.134 µM)
MBC [9, 18]: 0.04 µg/mL (≈ 0.0535 µM)

MIC [9, 11]: 50 µg/mL (≈ 292 µM)
MIC [9, 13]: 1.56 µg/mL (≈ 9.11 µM)
MIC [9, 15]: 1.56 µg/mL (≈ 9.11 µM)
MIC [9, 17]: 1.56 µg/mL (≈ 9.11 µM)
SMILES: Cc1ncc([N+](=O)[O-])n1CCO [Metronidazole, metronidazole]
MBC [9, 10]: 100 µg/mL (≈ 584 µM)
MBC [9, 12]: 6.25 µg/mL (≈ 36.5 µM)
MBC [9, 16]: 10 µg/mL (≈ 58.4 µM)
MBC [9, 18]: > 100 µg/mL

activity in the anti-proton pump test [1]: did not show any activity
activity in the MIC/MBC anti-H. pylori test [9]: did not show any activity
SMILES: COC(=O)c1cc(O)c(O)c(O)c1 [methyl gallate]
activity in the disc diffusion anti-H. pylori test [4]: did not show any activity
